In article PMC10492212 (Journal of Ayurveda and Integrative Medicine, 2023):
≈ marks a conversion by molar mass, not a printed value.

Molecular target: intestinal α-glucosidase
Assay: sucrose hydrolysis, glucose oxidase-peroxidase, absorbance […] nm
Type: biochemical
Conditions: phosphate buffer pH 7.5, 20 min pre-incubation at 37 °C

SMILES: C[C@H]1O[C@H](O[C@H]2[C@H](O)[C@@H](O)[C@@H](O[C@H]3[C@H](O)[C@@H](O)C(O)O[C@@H]3CO)O[C@@H]2CO)[C@H](O)[C@@H](O)[C@@H]1N[C@H]1C=C(CO)[C@@H](O)[C@H](O)[C@H]1O (stereo partly shown) [acarbose]
- IC50: 52.5 ± 2.67 µg/mL (≈ 81.3 µM)
